Our source for the Kd values is paper PMC5674802 (Molecular cell, 2017).

The assay has as its target RagA-RagC heterodimer, RagC nucleotide site (Homo sapiens, UniProt Q9HB90). The assay is described as follows: UV crosslinking of radiolabelled nucleotide, SDS-PAGE autoradiography. The format is binding.

Sequence of RagA-RagC heterodimer, RagC nucleotide site (Q9HB90 2-399): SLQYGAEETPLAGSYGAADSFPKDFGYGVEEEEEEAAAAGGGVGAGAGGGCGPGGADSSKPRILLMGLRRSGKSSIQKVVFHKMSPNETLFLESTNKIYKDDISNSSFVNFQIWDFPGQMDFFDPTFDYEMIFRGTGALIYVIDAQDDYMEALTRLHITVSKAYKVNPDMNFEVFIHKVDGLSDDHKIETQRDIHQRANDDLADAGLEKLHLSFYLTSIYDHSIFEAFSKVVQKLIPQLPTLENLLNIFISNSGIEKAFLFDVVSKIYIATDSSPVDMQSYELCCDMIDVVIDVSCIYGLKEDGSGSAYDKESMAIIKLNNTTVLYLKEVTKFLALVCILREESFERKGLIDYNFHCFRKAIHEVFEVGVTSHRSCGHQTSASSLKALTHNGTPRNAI
Sequence of RagA-RagC heterodimer, RagC nucleotide site (Q7L523 whole entry partner): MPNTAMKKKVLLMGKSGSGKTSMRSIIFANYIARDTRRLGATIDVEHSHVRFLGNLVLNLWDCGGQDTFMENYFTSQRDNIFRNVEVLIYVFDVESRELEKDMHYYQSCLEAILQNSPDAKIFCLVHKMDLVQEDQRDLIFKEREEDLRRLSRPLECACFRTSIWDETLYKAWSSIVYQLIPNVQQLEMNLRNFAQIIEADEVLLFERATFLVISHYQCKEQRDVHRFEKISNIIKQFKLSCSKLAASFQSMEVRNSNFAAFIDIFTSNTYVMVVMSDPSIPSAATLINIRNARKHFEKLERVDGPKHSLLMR

Compound `Nc1nc2c(ncn2[C@@H]2O[C@H](COP(=O)(O)OP(=O)(O)OP(=O)(O)O)[C@@H](O)[C@H]2O)c(=O)[nH]1` [GTP] came in with a Kd of 11 nM.
